Values joined by “and” are separate entries in the source; they are usually repeats but may differ in a detail not shown here. Equal values may be shown once. Toxic doses and inconclusive results are not listed.

This assay relates to CD2F1 mice, L1210 leukemia ip, survival T/C. The experiment in a line: NCI In Vivo Anticancer Drug Screen. Data for tumor model L1210 Leukemia (intraperitoneal) in CD2F1 (CDF1) mice. Particulars: higher = longer survival. A digest of the protocol:
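Transplantable tumor in mice; compound-treated vs vehicle-treated groups. Read-out = treated/control ratio of the measured endpoint.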

Where [1] appears, read: endpoint: mean survival time, dose: 25.0 mg/kg/injection, schedule: Q01DX005 (ip), vehicle: other.
Where [2] appears, read: endpoint: mean survival time, dose: 50.0 mg/kg/injection, schedule: Q01DX005 (ip), vehicle: other.
Setting [3] is: endpoint: mean survival time, dose: 100.0 mg/kg/injection, schedule: Q01DX005 (ip), vehicle: other.
[4] abbreviates: endpoint: mean survival time, dose: 100.0 mg/kg/injection, schedule: Q04DX003 (ip), vehicle: saline with Tween-80.
Where [5] appears, read: endpoint: mean survival time, dose: 200.0 mg/kg/injection, schedule: Q04DX003 (ip), vehicle: saline with Tween-80.
Where [6] appears, read: endpoint: mean survival time, dose: 400.0 mg/kg/injection, schedule: Q04DX003 (ip), vehicle: saline with Tween-80.
Setting [7] is: endpoint: mean survival time, dose: 100.0 mg/kg/injection, schedule: Q04DX002 (ip), vehicle: saline with Tween-80.
[8] abbreviates: endpoint: mean survival time, dose: 200.0 mg/kg/injection, schedule: Q04DX002 (ip), vehicle: saline with Tween-80.

As to `CC(C)OC(=O)c1cc([N+](=O)[O-])c(Sc2ncnc3nc[nH]c23)c([N+](=O)[O-])c1`, the T/C (endpoint: mean survival time, dose: 0.63 mg/kg/injection, schedule: Q01DX005 (ip), vehicle: other) is 109 % of control; the T/C (endpoint: mean survival time, dose: 1.25 mg/kg/injection, schedule: Q01DX005 (ip), vehicle: other) was 119 % of control; the T/C (endpoint: mean survival time, dose: 2.5 mg/kg/injection, schedule: Q01DX005 (ip), vehicle: other) was 114 % of control; the T/C (endpoint: mean survival time, dose: 5.0 mg/kg/injection, schedule: Q01DX005 (ip), vehicle: other) is 124 % of control; the T/C (endpoint: mean survival time, dose: 9.9 mg/kg/injection, schedule: Q01DX005 (ip), vehicle: other) was 115 % of control; the T/C under setting [1] is 157 % of control. Besides, the T/C by setting is: (endpoint: mean survival time, dose: 33.3 mg/kg/injection, schedule: Q01DX005 (ip), vehicle: other) 158 % of control; under setting [2], 151 % of control and 178 % of control and 184 % of control; under setting [3], 89 % of control.
As for `Nc1nnnn1-c1ccc(O)cc1`, the T/C by setting is: under setting [4], 104 % of control; under setting [5], 98 % of control; under setting [6], 104 % of control.
Turning to `CCCCCOS(=O)(=O)O`, the T/C (endpoint: mean survival time, dose: 100.0 mg/kg/injection, schedule: Q01DX001 (ip), vehicle: saline) is 108 % of control; the T/C (endpoint: mean survival time, dose: 200.0 mg/kg/injection, schedule: Q01DX001 (ip), vehicle: saline) was 120 % of control; the T/C (endpoint: mean survival time, dose: 400.0 mg/kg/injection, schedule: Q01DX001 (ip), vehicle: saline) was 102 % of control.
Take `CN(C)C1CCCCC1[N+](C)(C)C` (stereo unspecified): the T/C runs as follows: (endpoint: mean survival time, dose: 5.0 mg/kg/injection, schedule: Q01DX009 (ip), vehicle: saline) 101 % of control; (endpoint: mean survival time, dose: 5.0 mg/kg/injection, schedule: Q04DX003 (ip), vehicle: saline) 104 % of control; (endpoint: mean survival time, dose: 10.0 mg/kg/injection, schedule: Q01DX009 (ip), vehicle: saline) 107 % of control; (endpoint: mean survival time, dose: 10.0 mg/kg/injection, schedule: Q04DX003 (ip), vehicle: saline) 101 % of control; (endpoint: mean survival time, dose: 20.0 mg/kg/injection, schedule: Q01DX009 (ip), vehicle: saline) 104 % of control; (endpoint: mean survival time, dose: 20.0 mg/kg/injection, schedule: Q04DX003 (ip), vehicle: saline) 98 % of control.
In the case of `NC(=S)N/N=C/c1cc(-c2cccc(N)c2)ccn1`, the T/C reads like this: (endpoint: mean survival time, dose: 6.25 mg/kg/injection, schedule: Q01DX009 (ip), vehicle: saline with Tween-80) 113 % of control; (endpoint: mean survival time, dose: 9.4 mg/kg/injection, schedule: Q01DX009 (ip), vehicle: saline with Tween-80) 116 % of control and 104 % of control; (endpoint: mean survival time, dose: 12.5 mg/kg/injection, schedule: Q01DX009 (ip), vehicle: saline with Tween-80) 115 % of control; (endpoint: mean survival time, dose: 18.8 mg/kg/injection, schedule: Q01DX009 (ip), vehicle: saline with Tween-80) 115 % of control and 118 % of control; (endpoint: mean survival time, dose: 25.0 mg/kg/injection, schedule: Q01DX009 (ip), vehicle: saline with Tween-80) 123 % of control; (endpoint: mean survival time, dose: 37.5 mg/kg/injection, schedule: Q01DX009 (ip), vehicle: saline with Tween-80) 115 % of control and 119 % of control. Further, where the note is “endpoint: mean survival time, dose: 75.0 mg/kg/injection, schedule: Q01DX009 (ip), vehicle: saline with Tween-80”, the T/C is 89 % of control and 104 % of control and 107 % of control.
As for `O=c1[nH]c(=S)[nH]c(-c2ccc(Cl)cc2)c1CCO`, the T/C is, setting by setting: under setting [4], 94 % of control; under setting [5], 92 % of control; under setting [6], 90 % of control.
For the molecule `Clc1ccc(C2SC=Cc3ccccc32)cc1` (stereo unspecified), the T/C runs as follows: (endpoint: median survival time, dose: 25.0 mg/kg/injection, schedule: Q01DX009 (ip), vehicle: Klucel (hydroxypropylcellulose) (HPC)) 110 % of control; (endpoint: median survival time, dose: 50.0 mg/kg/injection, schedule: Q01DX009 (ip), vehicle: Klucel (hydroxypropylcellulose) (HPC)) 104 % of control; (endpoint: median survival time, dose: 100.0 mg/kg/injection, schedule: Q01DX009 (ip), vehicle: Klucel (hydroxypropylcellulose) (HPC)) 109 % of control; (endpoint: median survival time, dose: 200.0 mg/kg/injection, schedule: Q01DX009 (ip), vehicle: Klucel (hydroxypropylcellulose) (HPC)) 104 % of control.
`CCCCCCCCOC(=O)c1cc([N+](=O)[O-])c(Sc2ncnc3nc[nH]c23)c([N+](=O)[O-])c1`: the T/C reads like this: (endpoint: mean survival time, dose: 11.0 mg/kg/injection, schedule: Q01DX005 (ip), vehicle: other) 112 % of control; (endpoint: mean survival time, dose: 12.5 mg/kg/injection, schedule: Q01DX005 (ip), vehicle: other) 115 % of control; under setting [1], 172 % of control; under setting [2], 118 % of control; under setting [3], 107 % of control.
`CC(=O)OC1CCC2(C)C(=CCC3C2CCC2(C)C(C(C)CCCC(C)(C)O)CCC32)C1` (stereo unspecified): the T/C was 97 % of control under setting [4], 89 % of control under setting [5] and 94 % of control under setting [6].
As for `COc1cc(C=C(c2ccc(N(C)C)cc2)c2ccc(N(C)C)cc2)c(OC)c2ccccc12`, the T/C reads like this: (endpoint: mean survival time, dose: 100.0 mg/kg/injection, schedule: Q01DX001 (ip), vehicle: saline with Tween-80) 102 % of control; under setting [7], 90 % of control; (endpoint: mean survival time, dose: 200.0 mg/kg/injection, schedule: Q01DX001 (ip), vehicle: saline with Tween-80) 101 % of control; under setting [8], 87 % of control; (endpoint: mean survival time, dose: 400.0 mg/kg/injection, schedule: Q01DX001 (ip), vehicle: saline with Tween-80) 90 % of control.
For the molecule `COc1ccc(COC(=O)Nc2ccc([N+](=O)[O-])cc2)cc1`, the T/C is 96 % of control under setting [7]; 96 % of control under setting [8]; 96 % of control (endpoint: mean survival time, dose: 400.0 mg/kg/injection, schedule: Q04DX002 (ip), vehicle: saline with Tween-80).
Regarding `Cc1c(NC(=O)Nc2ccc(C3=NCCCN3)cc2)cccc1NC(=O)Nc1ccc(C2=NCCCN2)cc1`, the T/C was 162 % of control (endpoint: mean survival time, dose: 125.0 mg/kg/injection, schedule: Q01DX Z (ip), vehicle: water); 177 % of control (endpoint: mean survival time, dose: 250.0 mg/kg/injection, schedule: Q01DX Z (ip), vehicle: water); 224 % of control (endpoint: mean survival time, dose: 500.0 mg/kg/injection, schedule: Q01DX Z (ip), vehicle: water).
`N[C@H](C(=O)O)[C@@H]1CC(Cl)=NO1`: the T/C reads like this: (endpoint: mean survival time, dose: 0.5 mg/kg/injection, schedule: Q01DX009 (ip), vehicle: saline) 113 % of control; (endpoint: mean survival time, dose: 0.78 mg/kg/injection, schedule: Q01DX009 (ip), vehicle: saline) 115 % of control; (endpoint: mean survival time, dose: 1.0 mg/kg/injection, schedule: Q01DX009 (ip), vehicle: saline) 122 % of control; (endpoint: mean survival time, dose: 2.0 mg/kg/injection, schedule: Q01DX009 (ip), vehicle: saline) 124 % of control; (endpoint: mean survival time, dose: 3.0 mg/kg/injection, schedule: Q01DX009 (ip), vehicle: saline) 167 % of control; (endpoint: mean survival time, dose: 3.12 mg/kg/injection, schedule: Q01DX009 (ip), vehicle: saline) 153 % of control. Besides, the T/C is 165 % of control (endpoint: mean survival time, dose: 6.0 mg/kg/injection, schedule: Q01DX009 (ip), vehicle: saline); 151 % of control and 156 % of control (endpoint: mean survival time, dose: 6.25 mg/kg/injection, schedule: Q01DX009 (ip), vehicle: saline); 157 % of control (endpoint: mean survival time, dose: 8.0 mg/kg/injection, schedule: Q01DX009 (ip), vehicle: saline); 104 % of control (endpoint: mean survival time, dose: 12.0 mg/kg/injection, schedule: Q01DX009 (ip), vehicle: saline); 118 % of control and 122 % of control (endpoint: mean survival time, dose: 12.5 mg/kg/injection, schedule: Q01DX009 (ip), vehicle: saline); 155 % of control (endpoint: mean survival time, dose: 16.0 mg/kg/injection, schedule: Q01DX009 (ip), vehicle: saline). For the same molecule, the T/C was 92 % of control (endpoint: mean survival time, dose: 25.0 mg/kg/injection, schedule: Q01DX009 (ip), vehicle: saline); 153 % of control (endpoint: mean survival time, dose: 100.0 mg/kg/injection, schedule: Q04DX003 (ip), vehicle: water); 122 % of control (endpoint: median survival time, dose: 0.5 mg/kg/injection, schedule: Q01DX009 (ip), vehicle: saline); 163 % of control (endpoint: median survival time, dose: 1.0 mg/kg/injection, schedule: Q01DX009 (ip), vehicle: saline); 180 % of control (endpoint: median survival time, dose: 2.0 mg/kg/injection, schedule: Q01DX009 (ip), vehicle: saline); 152 % of control (endpoint: median survival time, dose: 3.0 mg/kg/injection, schedule: Q01DX009 (ip), vehicle: saline). Besides, the T/C reads like this: (endpoint: median survival time, dose: 4.0 mg/kg/injection, schedule: Q01DX009 (ip), vehicle: saline) 150 % of control; (endpoint: median survival time, dose: 6.0 mg/kg/injection, schedule: Q01DX009 (ip), vehicle: saline) 114 % of control and 109 % of control; (endpoint: median survival time, dose: 16.0 mg/kg/injection, schedule: Q01DX009 (ip), vehicle: saline) 123 % of control; (endpoint: median survival time, dose: 24.0 mg/kg/injection, schedule: Q01DX009 (ip), vehicle: saline) 72 % of control.

The record behind these values is PubChem BioAssay AID256 (DTP/NCI, 2004).
